# From patent US20100093645A1, “SMAC Peptidomimetics and the Uses Thereof” (priority 2004, published 2010)
# Where two headings read alike, the source gives them in different places. Peptide text beside a SMILES is read from it. * marks the point of attachment. NHPr = CCCN*
# What was measured:
# [1] = test system: PC-3 cells; test: Apoptosis by Annexin V-FITC staining in PC-3 cells, alone or with CDDP; format: cell-based, human
# Protocol: […]. […] […]. The experiment used PC-3 cells which express high levels of XIAP and cIAP-1/2 proteins and cisplatin (CDDP) as the chemotherapeutic drug. CDDP is a DNA damaging agent and can effectively induce apoptosis in PC-3 cells and is also a clinically used chemotherapeutic drug for prostate cancer.
# PC-3 cells were treated with CDDP, Smac peptides and peptidomimetics alone or in combination for 42 hours and apoptosis was analyzed by Annexin V-FITC staining. […] Combination of 25 μM CDDP and 10 μM or 25 μM SH-97 induced 29.3%±1.9% and 35.8%±0.4% apoptosis over control cells, respectively (FIG. 6A). […].
# In a similar experiment, PC-3 cells were treated with the Smac peptidomimetic CJ-445 (Table 3) and CDDP as described above. Combination of 25 μM CDDP and 5 μM or 10 μM CJ-445 induced about 30% and about 35% apoptosis over control cells, respectively (FIG. 7).
# [2] = test system: MDA-231 breast cancer cells; test: Apoptosis by Annexin V-FITC/propidium iodide flow cytometry in MDA-231 cells, alone or with CDDP; format: cell-based, human; details: 42 hours
# Protocol: Another experiment was carried out in which MDA-231 breast cancer cells in 6-well plates were treated with SH-97 and CDDP, alone or in combination, for 42 hours. Cells were collected and stained with Annexin V-FITC and propidium iodide. The fluorescence of individual cells was analyzed by flow cytometry. 25 and 50 μM CDDP induced about 30% and about 45%, respectively, of cancer cells to undergo apoptosis as compared to control cells (FIG. 8). Combination of 25 or 50 μM CDDP and 10 μM SH-97 induced about 50% and 90% apoptosis over control cells, respectively (FIG. 8). […] (FIG. 8).
# [3] = biological target: human XIAP-BIR3 protein (residues 241-356) (Homo sapiens, UniProt P98170); test: biochemical
# Sequence of human XIAP-BIR3 protein (residues 241-356) (P98170 241-356): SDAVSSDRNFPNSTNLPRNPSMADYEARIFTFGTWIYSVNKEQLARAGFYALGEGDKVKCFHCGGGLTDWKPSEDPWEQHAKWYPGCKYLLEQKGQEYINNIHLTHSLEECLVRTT
# [4] = test system: MDA-231 breast cancer cell line; test: MTT cell viability assay in MDA-231 cells; format: cell-based; details: Homo sapiens, MDA-MB-231, 120 h, read-out: EC50 growth inhibition
# Protocol: (§1) . The cells were then incubated at 37 C with 5% CO2 for 5 days, followed by detection of cell viability with the MTT assay. Untreated cells were used as 100% growth. […].
# [5] = test system: PC-3 cells; test: MTT cell viability assay in PC-3 cells; format: cell-based; details: Homo sapiens
# Protocol: as §1
# [6] = test system: PC-3 cells; test: Clonogenic assay with X-ray radiation in PC-3 cells
# [7] = biological target: human XIAP-BIR3 protein (residues 241-356) with a His tag (human) (UniProt P98170); test: fluorescence polarization; 5 nM SM5F and 0.030 µM XIAP-BIR3
# Sequence of human XIAP-BIR3 protein (residues 241-356) with a His tag (human) (P98170 241-356 limits assumed): as the sequence (P98170 241-356) above
# [8] = biological target: human XIAP-BIR3 protein (residues 241-356) with a His tag (human) (UniProt P98170); test: fluorescence polarization, saturation; against S9F as reference
# [9] = biological target: human XIAP-BIR3 protein (residues 241-356) with a His tag (human) (UniProt P98170); test: fluorescence polarization, saturation; 5 nM peptide titrated with 0 to 40 µM protein
# [10] = biological target: human XIAP-BIR3 protein (residues 241-356) with a His tag (human) (UniProt P98170); test: competitive fluorescence polarization, SM5F tracer; against S9 as reference
# [11] = PC-3, MTT, read-out: EC50 growth inhibition
# [12] = 10 μM compound + 25 μM CDDP, 42 hours
compound,measurement,setting,value
"[NH2][Pt]([NH2])([Cl])[Cl] [CDDP, cisplatin, reference compound]",apoptosis as compared to control cells,"[1]; 25 μM CDDP alone, 42 hours",12-15%
same,apoptosis as compared to control cells,[2]; 25 μM CDDP alone,about 30%
same,apoptosis as compared to control cells,[2]; 50 μM CDDP alone,about 45%
CC(C)[C@H](NC(=O)[C@H](C)N)C(=O)N1CCC[C@H]1C(=O)NCCc1c[nH]c2ccccc12 [CJ-376],Ki,[3],3.99 µM
Cc1ccc(CNC(=O)[C@@H]2CCCN2C(=O)[C@@H](NC(=O)[C@H](C)N)C(C)C)cc1 [CJ-409],Ki,[3],3.21 µM
Cc1cccc(CNC(=O)[C@@H]2CCCN2C(=O)[C@@H](NC(=O)[C@H](C)N)C(C)C)c1 [CJ-410],Ki,[3],1.19 µM
Cc1ccccc1CNC(=O)[C@@H]1CCCN1C(=O)[C@@H](NC(=O)[C@H](C)N)C(C)C [CJ-411],Ki,[3],0.54 µM
COc1ccc(CNC(=O)[C@@H]2CCCN2C(=O)[C@@H](NC(=O)[C@H](C)N)C(C)C)cc1 [CJ-412],Ki,[3],11.7 µM
COc1cccc(CNC(=O)[C@@H]2CCCN2C(=O)[C@@H](NC(=O)[C@H](C)N)C(C)C)c1 [CJ-413],Ki,[3],2.92 µM
COc1ccccc1CNC(=O)[C@@H]1CCCN1C(=O)[C@@H](NC(=O)[C@H](C)N)C(C)C [CJ-414],Ki,[3],3.88 µM
CCNC(=O)[C@@H]1CCCN1C(=O)[C@@H](NC(=O)[C@H](C)N)C(C)C [CJ-418] (H-Ala-Val-Pro-NHEt),Ki,[3],55.3 µM
CC(C)[C@H](NC(=O)[C@H](C)N)C(=O)N1CCC[C@H]1C(=O)NCc1ccc(Cl)cc1 [CJ-419],Ki,[3],0.97 µM
CC(C)[C@H](NC(=O)[C@H](C)N)C(=O)N1CCC[C@H]1C(=O)NCc1cccc(Cl)c1 [CJ-420],Ki,[3],1.42 µM
CC(C)[C@H](NC(=O)[C@H](C)N)C(=O)N1CCC[C@H]1C(=O)NCc1ccccc1Cl [CJ-421],Ki,[3],1.73 µM
CC(C)[C@H](NC(=O)[C@H](C)N)C(=O)N1CCC[C@H]1C(=O)NCc1ccc(O)cc1 [CJ-425],Ki,[3],1.34 µM
CC[C@H](N)C(=O)N[C@H](C(=O)N1CCC[C@H]1C(=O)NC(c1ccccc1)c1ccccc1)c1ccccc1 [CJ-444],EC50,"[4]; 5 days, MTT",120 to 130 µM
same,EC50,[5]; [11],120 to 130 µM
same,Ki,[3],13.5 µM
CC[C@H](N)C(=O)N[C@H](C(=O)N1CCC[C@H]1C(=O)NC(c1ccccc1)c1ccccc1)C1CCCCC1.Cl [CJ-445],apoptosis over control cells,"[1]; 5 μM compound + 25 μM CDDP, 42 hours",about 30%
same,apoptosis over control cells,[1]; [12],about 35%
same,"sensitizing PC-3 cells to CDDP-induced apoptosis, compared with Smac8-C",[1]; 10 μM compound vs 100 μM Smac8-C,as potent as 100 μM Smac8-C
same,EC50,"[4]; 5 days, MTT",120 to 130 µM
same,EC50,[5]; [11],120 to 130 µM
same,Ki,[3],1.13 µM
C[C@H](N)C(=O)N[C@H](C(=O)N1CCC[C@H]1C(=O)NC(c1ccccc1)c1ccccc1)c1ccccc1 [CJ-450],EC50,"[4]; 5 days, MTT",120 to 130 µM
same,EC50,[5]; [11],120 to 130 µM
same,Ki,[3],10.4 µM
C[C@H](N)C(=O)N[C@H](C(=O)N1CCC[C@H]1C(=O)NC(c1ccccc1)c1ccccc1)C1CCCCC1 [CJ-451],EC50,[4],120 to 130 µM
same,EC50,"[5]; PC-3, read-out: EC50 growth inhibition",120 to 130 µM
CNC(=O)[C@@H]1CCCN1C(=O)[C@@H](NC(=O)[C@H](C)N)C(C)C [CJ-452] (H-Ala-Val-Pro-NHMe),Ki,[3],80.9 µM
CCCNC(=O)[C@@H]1CCCN1C(=O)[C@@H](NC(=O)[C@H](C)N)C(C)C [CJ-453] (H-Ala-Val-Pro-NHPr),Ki,[3],49.2 µM
CC(C)[C@H](NC(=O)[C@H](C)N)C(=O)N1CCCC[C@H]1C(=O)NC(c1ccccc1)c1ccccc1 [CJ-458],Ki,[3],160 µM
C[C@H](N)C(=O)N[C@H](C(=O)N1CCC[C@@H]1C(=O)NC(c1ccccc1)c1ccccc1)C1CC1 [CJ-464-2],Ki,[3],3.54 µM
C[C@H](N)C(=O)N[C@H](C(=O)N1CCC[C@H]1C(=O)NC(c1ccccc1)c1ccccc1)C1CCCC1 [CJ-467],Ki,[3],0.37 µM
CC(C)[C@H](NC(=O)[C@H](C)N)C(=O)N1CC[C@H]1C(=O)NC(c1ccccc1)c1ccccc1 [CJ-469],Ki,[3],0.78 µM
C[C@H](N)C(=O)N[C@@H](CC1CCCCC1)C(=O)N1CCC[C@H]1C(=O)NC(c1ccccc1)c1ccccc1 [CJ-473],Ki,[3],0.56 µM
CC(C)[C@H](NC(=O)[C@H](C)N)C(=O)N1CCC[C@H]1C(=O)NCc1c[nH]c2ccccc12 [CJ-488],Ki,[3],41 µM
CC(C)[C@H](NC(=O)[C@H](C)N)C(=O)N1CCC[C@H]1C(=O)NCc1cccc2ccccc12 [CJ-489],Ki,[3],0.7 µM
CC(C)[C@H](NC(=O)[C@H](C)N)C(=O)N1CCC[C@H]1C(=O)NC(c1ccccc1)c1ccccc1 [Compound 11],EC50,[4],120 to 130 µM
CC[C@H](N)C(=O)N[C@H](C(=O)N1CCC[C@H]1C(=O)NC(c1ccccc1)c1ccccc1)C(C)C [Compound 16],apoptosis over control cells,[1]; [12],29.3%±1.9%
same,apoptosis over control cells,"[1]; 25 μM compound + 25 μM CDDP, 42 hours",35.8%±0.4%
same,apoptosis induction by compound alone,"[1]; alone, 42 hours, SH-97 up to 50 μM",did not induce significantly more apoptosis
same,apoptosis over control cells,[2]; 10 μM compound + 25 μM CDDP,about 50%
same,apoptosis over control cells,[2]; 10 μM compound + 50 μM CDDP,~90%
same,EC50,[4],120 to 130 µM
same,radiosensitization compared with Smac8-C,"[6]; 10 μM SH-97 vs 100 μM Smac8-C, 6 and 8 Gy",more effective than 100 μM of the cell-permeable Smac peptide Smac8-C
same,reduction of colony formation as compared to radiation alone,"[6]; 6 Gy, 10 μM compound",more than 10 fold
same,reduction of colony formation as compared to radiation alone,"[6]; 6 Gy, 25 μM compound",more than 10 fold
same,reduction of colony formation as compared to radiation alone,"[6]; 8 Gy, 10 μM compound",40 fold
same,reduction of colony formation as compared to radiation alone,"[6]; 8 Gy, 25 μM compound",50 fold
same,effect on activity of X-ray radiation,"[6]; 10 and 25 μM SH-97, 100 μM Smac8-C",significantly increased the activity of the radiation
same,effect on colony formation by compound itself,"[6]; without radiation, 10 days",no significant effect
CC(C)[C@H](NC(=O)[C@H](C)N)C(=O)N1CCC[C@H]1CCc1ccccc1 [SH-64],Ki,[3],> 200 µM
CC(C)[C@H](NC(=O)[C@H](C)N)C(=O)N1CCC[C@H]1CNCc1ccccc1 [SH-80],Ki,[3],25.7 µM
CC(C)[C@H](NC(=O)[C@H](C)N)C(=O)N1CCC[C@@H]1CNCc1ccccc1 [SH-81],Ki,[3],> 200 µM
CC(C)[C@H](NC(=O)CN)C(=O)N1CCC[C@H]1CCCc1ccccc1 [SH-82],Ki,[3],3.22 µM
CC[C@H](N)C(=O)N[C@H](C(=O)N1CCC[C@H]1C(=O)N[C@@H](Cc1ccccc1)c1ccccc1)C(C)C [SH-98],Ki,[3],3.1 µM
CC[C@H](N)C(=O)N[C@H](C(=O)N1CCC[C@H]1C(=O)N[C@@H](c1ccccc1)c1ccc(CCCOC)cc1)C(C)C [SH-103],Ki,[3],0.1 µM
CC(C)[C@H](NC(=O)[C@H](C)N)C(=O)N1CCC[C@H]1COC(c1ccccc1)c1ccccc1 [SH-106],Ki,[3],5.47 µM
"AVPIAQKS [Smac-8, reference compound]",potentiation of the activity of CDDP in inducing apoptosis,[1]; negative controls with CDDP,unable to potentiate the activity of CDDP
"AbuRPFK-FAM, termed SM5F (fluorescently labeled mutated 5-mer Smac peptide)",percent of tracer saturated,[7],60%
same,fold higher binding affinity than S9F,[8],10 fold
same,ratio of the Kd values between SM5F and S9F,[8],7.2 fold
same,maximum binding,[9],276 mP
"unlabeled mutated Smac 5-mer peptide (SM5), AbuRPFK",ratio of the IC50 values for SM5 and S9,[10],6.7 fold
